# Test results as given in paper PMC9505425, “Targeting of the Mitochondrial TET1 Protein by Pyrrolo[3,2-b]pyrrole Chelators” (International Journal of Molecular Sciences, 2022).
# Several values for one entry are separate records, joined by “and”; a condition that tells them apart may be missing. Equal entries are not always repeated.
# How the values were obtained:
# BT-20 cells = experiment: MTT cytotoxicity assay, BT-20; type: cell-based, human
# Method: (§1) The effects of the tested compounds 1–6 on HF-P4, U-118 MG, H1299, BT-20, and Caov-3 cell lines were evaluated by the MTT assay during 48 h treatment (Table 2 and Tables S2–S31). In all tested compounds, we recognized a difference in cytotoxicity between healthy cells (HF-P4) and cancer cell lines (BT-20, Caov-3, and H-1299). […] In the case of ovarian cancer, the authors discovered oncogenic and poor prognosis roles of TET1 in epithelial ovarian carcinoma (EOC). TET1 is believed to demethylate the epigenome and activate numerous oncogenic pathways in EOC. The aforementioned study presents a new mechanism where TET1 contributes to tumor development through collaboration with CK2α [21]. The overexpression of the TET1 protein was also found in triple negative breast cancer and was associated with an activation of PI3K/mTOR pathway and decreased overall survival.
# The human mammary gland/breast cell line (BT-20), purchased from ATCC (BT-20 (ATCC® HTB-19™), Manassas, VA, USA), was used for the cytotoxicity assay (MTT), and BT-20 cells were cultivated under standard conditions in Eagle’s minimum essential medium (ATCC, Manassas, VA, USA) supplemented with 10% FBS and streptomycin (100 μg/mL) at 37 °C at a 5% CO2 atmosphere.
# (§2) For the cytotoxicity assay, we used the following cell lines: human glioblastoma cell line U118-MG, human mammary gland/breast cell line BT-20, human ovary adenocarcinoma cell line Caov-3, and non-small-cell lung carcinoma H-1299. As previously mentioned, these cell lines contain a high level of the TET1 protein, which corresponds to a lower overall survival. In addition to these cell cultures, we used the human dermal fibroblast cell line HF-P4 as a healthy control. Determination of cytotoxicity was performed using the MTT [3-(4,5-dimethylthiazol-2-yl)-2,5-diphenyltetrazolium bromide] colorimetric assay. Viable cells from each cell line were cultured in 96-well plates (VWR, Stříbrná Skalice, Czech Republic) at a density of 1.0 × 10^5 cells per well and allowed to grow for 24 h in 200 μL of recommended medium. After a 1-day incubation, the medium was replaced with solutions of compounds 1–6 at concentration ranges of 0.1–20 μM. Each concentration was measured four times within one test, and the entire test was repeated three times. Tested compounds 1–6 were dissolved in DMSO and then diluted with corresponding medium to a final volume of 200 μL (maximum 1% DMSO). After 48 h exposure, cells were treated with 175 μL of MTT solution (P-LAB, Prague, Czech Republic) for 2 h. In the next step, MTT solution was removed, and 125 μL of DMSO (Penta, Prague, Czech Republic) was added to solubilize dark crystals of formazan formed in intact cells, and absorbance was measured at 570 nm by the enzyme-linked immunoabsorbent assay reader Infinite® 200 PRO (Tecan, Männedorf, Switzerland). The final DMSO concentration was smaller than 1% (v/v). The absorbance of untreated cells was considered 100%, and IC50 values were calculated by the GraphPad Prism 8 software. As a parameter for cytotoxicity, we used a concentration that inhibits 50% of cell growth (IC50).
# U-118 MG cells = experiment: MTT cytotoxicity assay, U-118 MG; type: cell-based, human; conditions: 48 h
# Method: as §1
# A human glioblastoma cell line (U118-MG) and a human non-small-cell lung carcinoma cell line (H1299) were used for the cytotoxicity assay (MTT). Both cell lines were generously supplied by Dr. M. Masařik, PhD, Department of Pathological physiology, Masaryk University, Czech Republic. U118-MG cells were cultivated under standard conditions in Dulbecco’s modified Eagle’s medium (ATCC, Manassas, VA, USA) supplemented with 10% FBS and streptomycin (100 μg/mL) at 37 °C at a 5% CO2 atmosphere. H1299 cells were cultivated under standard conditions in RPMI 1640 (BioTech, Prague, Czech Republic) medium supplemented with 10% FBS and streptomycin (100 μg/mL) at 37 °C at a 5% CO2 atmosphere.
# as §2
smiles,measurement,setting,value
Cc1ccc(-n2c(-c3ccc(C(=O)N/N=C/c4cc(F)ccc4O)cc3)cc3c2cc(-c2ccc(C(=O)N/N=C/c4cc(F)ccc4O)cc2)n3-c2ccc(C)cc2)cc1 [Compound 3],Cell viability %,"BT-20 cells; BT-20, 100 nM, 48 h, repeats, 0.1 µM",73.86% and 70.55%
same,Cell viability %,"BT-20 cells; BT-20, 500 nM, 48 h, repeats, 0.5 µM",90.62% and 106.8284%
same,Cell viability %,"BT-20 cells; BT-20, 750 nM, 48 h, repeats, 0.75 µM",90.49% and 101.3318%
same,Cell viability %,"BT-20 cells; BT-20, 1 uM, 48 h, repeats, 1 µM",95.2857% and 94.7%
same,Cell viability %,"BT-20 cells; BT-20, 2.5 uM, 48 h, repeats, 2.5 µM",99.34% and 98.89%
same,Cell viability %,"BT-20 cells; BT-20, 5 uM, 48 h, repeats, 5 µM",91.79% and 101.4304%
same,Cell viability %,"BT-20 cells; BT-20, 7.5 uM, 48 h, repeats, 7.5 µM",71.93% and 72.16%
same,Cell viability %,"BT-20 cells; BT-20, 10 uM, 48 h, repeats, 10 µM",60.86% and 57.19%
same,Cell viability %,"BT-20 cells; BT-20, 15 uM, 48 h, repeats, 15 µM",53.94% and 48.1349%
same,Cell viability %,"BT-20 cells; BT-20, 20 uM, 48 h, repeats, 20 µM",33.39% and 29.51%
same,viability at 0.1 µM,"BT-20 cells; Homo sapiens, BT-20, 48 h, BT-20, 100 nM, repeats, read-out: Cell viability %",83.4%
same,viability at 0.5 µM,"BT-20 cells; Homo sapiens, BT-20, 48 h, BT-20, 500 nM, repeats, read-out: Cell viability %",95.3%
same,viability at 0.75 µM,"BT-20 cells; Homo sapiens, BT-20, 48 h, BT-20, 750 nM, repeats, read-out: Cell viability %",99.7%
same,viability at 1 µM,"BT-20 cells; Homo sapiens, BT-20, 48 h, BT-20, 1 uM, repeats, read-out: Cell viability %",104%
same,viability at 2.5 µM,"BT-20 cells; Homo sapiens, BT-20, 48 h, BT-20, 2.5 uM, repeats, read-out: Cell viability %",99.4%
same,viability at 5 µM,"BT-20 cells; Homo sapiens, BT-20, 48 h, BT-20, 5 uM, repeats, read-out: Cell viability %",85.1%
same,viability at 7.5 µM,"BT-20 cells; Homo sapiens, BT-20, 48 h, BT-20, 7.5 uM, repeats, read-out: Cell viability %",73.1%
same,viability at 10 µM,"BT-20 cells; Homo sapiens, BT-20, 48 h, BT-20, 10 uM, repeats, read-out: Cell viability %",62.9%
same,viability at 15 µM,"BT-20 cells; Homo sapiens, BT-20, 48 h, BT-20, 15 uM, repeats, read-out: Cell viability %",48.9%
same,viability at 20 µM,"BT-20 cells; Homo sapiens, BT-20, 48 h, BT-20, 20 uM, repeats, read-out: Cell viability %",41%
same,IC50,"BT-20 cells; Homo sapiens, BT-20, MTT, 48 h",13.7 µM
same,viability at 0.1 µM,"U-118 MG cells; Homo sapiens, U-118-MG, U-118 MG, 100 nM, repeats, read-out: Cell viability %",90.9%
same,viability at 0.75 µM,"U-118 MG cells; Homo sapiens, U-118-MG, U-118 MG, 750 nM, repeats, read-out: Cell viability %",70.2%
same,viability at 1 µM,"U-118 MG cells; Homo sapiens, U-118-MG, U-118 MG, 1 uM, repeats, read-out: Cell viability %",75.9%
same,viability at 2.5 µM,"U-118 MG cells; Homo sapiens, U-118-MG, U-118 MG, 2.5 uM, repeats, read-out: Cell viability %",64.7%
same,viability at 5 µM,"U-118 MG cells; Homo sapiens, U-118-MG, U-118 MG, 5 uM, repeats, read-out: Cell viability %",57.1%
same,viability at 7.5 µM,"U-118 MG cells; Homo sapiens, U-118-MG, U-118 MG, 7.5 uM, repeats, read-out: Cell viability %",48.3%
same,viability at 10 µM,"U-118 MG cells; Homo sapiens, U-118-MG, U-118 MG, 10 uM, repeats, read-out: Cell viability %",45.6%
same,viability at 15 µM,"U-118 MG cells; Homo sapiens, U-118-MG, U-118 MG, 15 uM, repeats, read-out: Cell viability %",42.6%
same,viability at 20 µM,"U-118 MG cells; Homo sapiens, U-118-MG, U-118 MG, 20 uM, repeats, read-out: Cell viability %",35.1%
same,IC50,"U-118 MG cells; Homo sapiens, U-118-MG, MTT",19.5 µM
same,Cell viability %,"U-118 MG cells; U-118 MG, 100 nM, repeats, 0.1 µM",99.65% and 109.711%
same,Cell viability %,"U-118 MG cells; U-118 MG, 500 nM, repeats, 0.5 µM",87.97% and 59.47% and 56.29%
same,Cell viability %,"U-118 MG cells; U-118 MG, 750 nM, repeats, 0.75 µM",72.44% and 70.85%
same,Cell viability %,"U-118 MG cells; U-118 MG, 1 uM, repeats",71.04% and 66.44%
same,Cell viability %,"U-118 MG cells; U-118 MG, 2.5 uM, repeats",61.47% and 71.58%
same,Cell viability %,"U-118 MG cells; U-118 MG, 5 uM, repeats",68.44% and 68.48%
same,Cell viability %,"U-118 MG cells; U-118 MG, 7.5 uM, repeats",52.95% and 55.16%
same,Cell viability %,"U-118 MG cells; U-118 MG, 10 uM, repeats",53.29% and 53%
same,Cell viability %,"U-118 MG cells; U-118 MG, 15 uM, repeats",46.07% and 47.09%
same,Cell viability %,"U-118 MG cells; U-118 MG, 20 uM, repeats",30.47% and 32.82%
